Data published in ChEMBL document CHEMBL1129712, “Synthesis and biological activities of camphor-based non-peptide growth hormone secretagogues” (Bioorg Med Chem Lett, 1996).

Species: Rattus norvegicus
Assay: Evaluated for intrinsic GH secretory potency as half maximal release of GH in the rat pituitary cell assay.
Format: functional
Details: Pituitary gland cell

SMILES	EC50 [nM]
CC(C)(N)C(=O)NC1CC2CCC1(CS(=O)(=O)N1CCC3(CCc4ccccc43)CC1)C2(C)C (stereo not given)	> 10000
CC1(C)C2CCC1(CS(=O)(=O)N1CCC3(CCc4ccccc43)CC1)C(NC(=O)[C@H]1CCCNC1)C2 (stereo not given in full)	> 1000
Cc1ccccc1N1CCN(S(=O)(=O)CC23CCC(CC2NC(=O)CC(C)(C)N)C3(C)C)CC1 (stereo not given)	> 10000
Cc1ccccc1N1CCN(S(=O)(=O)CC23CCC(CC2NC(=O)[C@H]2CCCNC2)C3(C)C)CC1 (stereo not given in full)	> 5000
CC1(C)C2CCC1(CS(=O)(=O)N1CCC3(CCc4ccccc43)CC1)C(NC(=O)C1CN3CCC1CC3)C2 (stereo not given)	> 10000
CC(C)(C)OC(=O)N1CCCC(C(=O)NC2CC3CCC2(CS(=O)(=O)N2CCC4(CCc5ccccc54)CC2)C3(C)C)C1 (stereo not given)	> 25000
CC(C)(N)CC(=O)NC1CC2CCC1(CS(=O)(=O)N1CCC3(CCc4ccccc43)CC1)C2(C)C (stereo not given)	> 10000
CC1(C)C2CCC1(CS(=O)(=O)N1CCC3(CCc4ccccc43)CC1)C(NC(=O)[C@@H]1CCCN(C[C@H](O)CO)C1)C2 (stereo not given in full)	800
CC1(C)C2CCC1(CS(=O)(=O)N1CCC3(CCc4ccccc43)CC1)C(NC(=O)C1CCNCC1)C2 (stereo not given)	9500
CC1(C)C2CCC1(CS(=O)(=O)N1CCC3(CCc4ccccc43)CC1)C(NC(=O)C1CCCCN1)C2 (stereo not given)	> 10000

The next compounds have a lower EC50 than those just listed; values first:

EC50 [nM]	SMILES
90	C[C@@H](O)CN1CCC[C@@H](C(=O)NC2CC3CCC2(CS(=O)(=O)N2CCC4(CCc5ccccc54)CC2)C3(C)C)C1 (stereo not given in full)
300	CC1(C)C2CCC1(CS(=O)(=O)N1CCC3(CCc4ccccc43)CC1)C(NC(=O)C1CCCNC1)C2 [L-368112]
300	CC1(C)C2CCC1(CS(=O)(=O)N1CCC3(CCc4ccccc43)CC1)C(NC(=O)C1CCCN(CCO)C1)C2 (stereo not given)
140	CC1(C)C2CCC1(CS(=O)(=O)N1CCC3(CCc4ccccc43)CC1)C(NC(=O)[C@@H]1CCCNC1)C2 (stereo partly drawn) [L-162425]
135	Cc1ccccc1N1CCN(S(=O)(=O)CC23CCC(CC2NC(=O)[C@@H]2CCCNC2)C3(C)C)CC1 (stereo not given in full)
